Data: the NIST ThermoML archive (doi:10.1016/j.jct.2016.10.031)

Test: molar heat capacity at constant pressure
Details: 101.33 kPa, Small (less than 1 g) adiabatic calorimetry

CC(C)(C)c1ccc(Oc2ccc([N+](=O)[O-])cc2)cc1 [1-(tert-butyl)-4-(4-nitrophenoxy)benzene]
Details | molar heat capacity at constant pressure [J/K/mol]
147.54 K, Crystal | 187.32
148.06 K, Glass | 190.82
148.34 K, Crystal | 188.16
148.86 K, Glass | 191.65
149.14 K, Crystal | 188.9
149.66 K, Glass | 192.65
149.94 K, Crystal | 189.82
150 K, Crystal | 189.82
150.46 K, Glass | 193.56
150.74 K, Crystal | 190.57
151.26 K, Glass | 194.31
151.54 K, Crystal | 191.48
152.06 K, Glass | 195.14
152.35 K, Crystal | 192.31
152.86 K, Glass | 195.97
153.15 K, Crystal | 193.23
153.66 K, Glass | 196.89
153.95 K, Crystal | 194.14
154.46 K, Glass | 197.88
154.75 K, Crystal | 194.81
155.26 K, Glass | 198.63
155.55 K, Crystal | 195.89
156.06 K, Glass | 199.63
156.35 K, Crystal | 196.72
156.86 K, Glass | 200.38
157.15 K, Crystal | 197.47
157.66 K, Glass | 201.21
157.95 K, Crystal | 198.13
158.46 K, Glass | 201.96
158.75 K, Crystal | 199.21
159.26 K, Glass | 202.87
159.55 K, Crystal | 200.21
160 K, Crystal | 200.63
160.06 K, Glass | 203.79
160.35 K, Crystal | 201.13
160.85 K, Glass | 204.7
161.15 K, Crystal | 202.12
161.95 K, Crystal | 202.71
162.45 K, Glass | 206.7
162.75 K, Crystal | 203.62
163.25 K, Glass | 207.28
163.55 K, Crystal | 204.37
164.04 K, Glass | 208.36
164.35 K, Crystal | 205.62
164.84 K, Glass | 209.11
165.15 K, Crystal | 206.53
165.64 K, Glass | 209.94
165.95 K, Crystal | 207.36
166.44 K, Glass | 210.52
166.75 K, Crystal | 208.11
167.23 K, Glass | 211.35
167.55 K, Crystal | 209.11
168.03 K, Glass | 212.35
168.34 K, Crystal | 210.11
168.81 K, Glass | 213.35
169.14 K, Crystal | 210.44
169.61 K, Glass | 214.18
169.94 K, Crystal | 211.44
170 K, Crystal | 211.44
170.41 K, Glass | 214.93
170.73 K, Crystal | 212.93
171.2 K, Glass | 216.18
171.53 K, Crystal | 213.1
172 K, Glass | 217.01
172.33 K, Crystal | 214.01
172.79 K, Glass | 217.67
173.12 K, Crystal | 214.76
173.59 K, Glass | 218.42
173.92 K, Crystal | 215.68
174.38 K, Glass | 219.58
174.72 K, Crystal | 216.59
175.18 K, Glass | 220.25
175.51 K, Crystal | 218.01
175.97 K, Glass | 221.25
176.31 K, Crystal | 218.34
176.77 K, Glass | 221.83
177.11 K, Crystal | 219.25
177.56 K, Glass | 222.49
177.91 K, Crystal | 219.83
178.36 K, Glass | 223.49
178.7 K, Crystal | 220.33
179.15 K, Glass | 224.32
179.5 K, Crystal | 221.5
179.94 K, Glass | 224.99
180 K, Crystal | 222.33
180.3 K, Crystal | 222.33
180.74 K, Glass | 225.74
181.08 K, Crystal | 223.58
181.52 K, Glass | 226.98
181.88 K, Crystal | 224.41
182.67 K, Crystal | 224.99
183.09 K, Glass | 227.73
183.47 K, Crystal | 225.82
183.89 K, Glass | 229.73
184.26 K, Crystal | 226.74
184.68 K, Glass | 230.39
185.06 K, Crystal | 227.57
185.47 K, Glass | 231.56
185.85 K, Crystal | 228.48
186.26 K, Glass | 232.14
186.65 K, Crystal | 229.15
187.05 K, Glass | 232.97
187.44 K, Crystal | 230.48
187.84 K, Glass | 233.97
188.22 K, Crystal | 231.31
188.63 K, Glass | 234.63
189.02 K, Crystal | 232.14
189.42 K, Glass | 235.47
189.81 K, Crystal | 233.3
190 K, Crystal | 233.22
190.21 K, Glass | 236.46
190.6 K, Crystal | 233.97
190.99 K, Glass | 237.29
191.39 K, Crystal | 234.63
191.78 K, Glass | 237.88
192.19 K, Crystal | 235.38
192.57 K, Glass | 238.87
192.98 K, Crystal | 236.3
193.36 K, Glass | 239.79
193.75 K, Crystal | 236.96
194.13 K, Glass | 240.95
194.54 K, Crystal | 237.79
194.91 K, Glass | 241.45
195.33 K, Crystal | 238.54
195.7 K, Glass | 241.95
196.12 K, Crystal | 239.46
196.49 K, Glass | 243.2
196.91 K, Crystal | 240.62
197.27 K, Glass | 243.95
197.7 K, Crystal | 241.29
198.06 K, Glass | 245.11
198.49 K, Crystal | 242.12
198.84 K, Glass | 245.94
199.28 K, Crystal | 243.03
199.63 K, Glass | 246.69
200 K, Crystal | 244.28
200.07 K, Crystal | 244.03
200.62 K, Glass | 248.02
201.06 K, Crystal | 245.28
202.26 K, Crystal | 246.86
203 K, Glass | 251.26
203.46 K, Crystal | 247.94
204.2 K, Glass | 252.18
204.66 K, Crystal | 249.18
205.4 K, Glass | 253.42
205.86 K, Crystal | 250.85
206.6 K, Glass | 254.76
207.05 K, Crystal | 252.26
207.79 K, Glass | 256.09
208.26 K, Crystal | 253.26
208.99 K, Glass | 257.5
209.45 K, Crystal | 254.42
210 K, Crystal | 255.34
